Assays:
[1] = cardiovascular study in dogs; assay type: in vivo; conditions: for minimal effective dose: Canis lupus familiaris, read-out: dose as from which femoral flow rate is increased; for vasodilator property: dog, in vivo
[2] = pretoxicity (LD-O, maximum non-lethal dose); assay type: in vivo, male mice; conditions: intraperitoneally, male mice
Procedure: (§1) In the following tests, CRL 40 875, in solution in distilled water, was administered intraperitoneally in a volume of 20 ml/kg to male mice and 5 ml/kg to male rats.
(§2) In the following tests, CRL 40 897, in solution in distilled water (pH 4), was administered intraperitoneally in a volume of 20 ml/kg to male mice and in a volume of 5 ml/kg to male rats, the procedures being those given above for CRL 40 875.
(§3) In the tests undertaken, CRL 40 912, in solution in distilled water (pH 4.5), was administered intraperitoneally in a volume of 20 ml/kg to male mice and in a volume of 5 ml/kg to male rats, the procedures being those given above for CRL 40 875.
(§4) The toxicological and neuropsychopharmacological studies undertaken in accordance with the procedures described above for CRL 40 875 enabled the following observations to be made: […]

[3] = neuropsychopharmacological study, overall findings; assay type: in vivo, mice, rats; conditions: weak doses where stated
Procedure: as §1, §2, §3, §4

[4] = overall behavior and reactivities in mice; assay type: in vivo, male mice
Procedure: as §1
Groups of three mice are observed before and then 15 minutes, 30 minutes, 1 hour, 2 hours, 3 hours and 24 hours after the administration of CRL 40 875.
as §2, §4

overall behavior in rats = assay type: in vivo, male rats
Procedure: as §1, §4

[5] = from EP-A-80,940, page 13, lines 6-10; cited from earlier work
β1 = β1 effect in dogs; assay type: in vivo; conditions: intraduodenal, anesthetized dogs
β2 = β2 effect in dogs; assay type: in vivo; conditions: intraduodenal, anesthetized dogs
[6] = anesthetized dogs, intraduodenal (CRL 40 903: then intravenous)
[7] = intraduodenal, anesthetized dogs

SMILES: Cc1ccc(C2CN(C(C)(C)C)CCO2)cc1.Cl (stereo not shown) [CRL 40 903, 2-p-tolyl-4-tert.-butylmorpholine hydrochloride]
- maximum increase in femoral flow rate ([1]; 20 mg/kg, anesthetized dogs, intraduodenal then intravenous): +150%
- minimal effective dose [1, 6]: ≥ 2.5 mg/kg
- dose as from which tachycardia appears [1, 6]: ≥ 1 mg/kg
- effect on blood pressure [1, 6]: no action on the blood pressure
- effect on the hypertension induced by noradrenaline [1, 6]: does not modify the hypertension induced by noradrenaline
- effect on the hypotension / effects of isoprenaline [1, 6]: reduces the hypotension induced by isoprenaline
- effect of propanolol on induced vasodilation ([1]; anesthetized dogs, intraduodenal then intravenous): not completely suppressed by propanolol
- vasodilator property [1]: particularly interesting as vasodilators
- LD-O (maximum non-lethal dose) [2]: greater than 128 mg/kg
- sedative effects [3]: sedative effects
- sedation and depressed respiration ([4]; 64 mg/kg and 128 mg/kg i.p., male mice): induce sedation and depressed respiration
- sedation and depressed respiration (overall behavior in rats; 32 mg/kg i.p., male rats): induce sedation and depressed respiration

SMILES: Cc1ccccc1C1CN(C)CCO1 (stereo not shown) [CRL 40 915, 2-o-tolyl-4-methylmorpholine]
- variation of sedative effects with dose [5]: no sedation at a given dose, significant sedation at the next highest dose used

SMILES: CCN1CCOC(O)(c2cccc(C(F)(F)F)c2)C1.Cl (stereo not shown) [CRL 41 092, 2-(m-trifluoromethylphenyl)-2-hydroxy-4-ethylmorpholine hydrochloride]
- minimal effective dose [1, 6]: ≥ 1 mg/kg
- effect on blood pressure [1, 6]: tends to increase the blood pressure
- effect on the hypertension induced by noradrenaline [1, 6]: increases the hypertension induced by noradrenaline
- femoral flow rate ([1]; as from 1 mg/kg intraduodenally, anesthetized dogs): greatly increases the femoral flow rate
- vasodilator property [1]: particularly interesting as vasodilators
- effect on heart beat [1, 7]: does not modify the heart beat
- rectal and skin temperatures [1, 7]: a reduction in the vertebral flow rate and also in the rectal and skin temperatures
- vertebral flow rate [1, 7]: a reduction in the vertebral flow rate
- femoral flow rate after propanolol ([1]; propanolol injected at the end of the test, anesthetized dogs): remaining above its control value
- effect of propanolol on heart beat and femoral flow rate ([1]; propanolol injected at the end of the test, anesthetized dogs, intraduodenal): very slightly reduces the heart beat and femoral flow rate
- β1 effect (β1): very slightly β1^-
- LD-O (maximum non-lethal dose) [2]: greater than 256 mg/kg
- sedative effects [3]: sedative effects
- β2 effect (β2): very slightly β1^- and β2^-
- hypothermia ([4]; 32 mg/kg i.p., mice): moderate hypothermia
- duration of sedation ([4]; 128 mg/kg i.p., mice): 0.5 h
- fear reaction, reactivity to touch and muscular tonus ([4]; 128 mg/kg i.p., mice): a reduction in the fear reaction, the reactivity to touch and the muscular tonus
- sedation, reactivity to touch and muscular tonus (overall behavior in rats; 64 mg/kg i.p., rats): transistory sedation with a reduction in the reactivity to touch and the muscular tonus
